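Where inhibition never reached the appropriate level, the endpoint shown equals the highest concentration tested. Otherwise, values were interpolated linearly from a five-concentration, 48-hour dose response in 96-well plates. GI50 = concentration required for 50% inhibition of growth.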 The source made the active and inactive calls. No stated cut-off is given here; in the data, active = GI50 up to about 1.1 µM and inactive = higher.
Tests used:
Assay in all cases: inhibition of tumour cell growth, NCI panel, 48 h
[1] = test system: NCI/ADR-RES
[2] = test system: IGROV-1
[3] = test system: SNB-19
[4] = test system: MDA-MB-231
[5] = test system: DU-145
[6] = test system: NCI-H460
[7] = test system: HCT-15
[8] = test system: HT-29
[9] = test system: K562
[10] = test system: HCT-116
[11] = test system: 786-0
[12] = test system: Hs-578T
[13] = test system: SF-268
[14] = test system: MOLT-4
[15] = test system: SF-295
[16] = test system: SK-MEL-5
[17] = test system: EKVX
[18] = test system: HOP-62
[19] = test system: T47D

SMILES | GI50 [1] | GI50 [2] | GI50 [3] | GI50 [4] | GI50 [5] | GI50 [6] | GI50 [7] [µM] | GI50 [8] | GI50 [9] | GI50 [10] | GI50 [11] | GI50 [12] | GI50 [13] | GI50 [14] | GI50 [15] | GI50 [16] | GI50 [17] | GI50 [18] | GI50 [19]
O=C(O)CC1OCC=C2CN3CCC45C6=CC(=O)C(O)=C([N+](=O)[O-])C6=NC4C1C2CC35 (stereo not given) | > 100 µM (inactive) | > 100 µM (inactive) | > 100 µM (inactive) | > 100 µM (inactive) | > 100 µM (inactive) | > 100 µM (inactive) | > 100 | > 100 µM (inactive) | 92.3 µM (inactive) | > 100 µM (inactive) | > 100 µM (inactive) | > 100 µM (inactive) | > 100 µM (inactive) | 89.5 µM (inactive) | > 100 µM (inactive) | > 100 µM (inactive) | > 100 µM (inactive) | > 100 µM (inactive) | > 100 µM (inactive)
COc1ccc2nc3cc([N+](=O)[O-])ccc3c(NNc3ccc([N+](=O)[O-])cc3)c2c1 | 61.8 µM (inactive) | 7.96 µM (inactive) | 24 µM (inactive) | 44 µM (inactive) | 47.8 µM (inactive) | 3.16 µM (inactive) | 55.8 | 7.46 µM (inactive) | 7.19 µM (inactive) | 5.69 µM (inactive) | 36.9 µM (inactive) | 55.3 µM (inactive) | 54.7 µM (inactive) | 25.5 µM (inactive) | 22 µM (inactive) | 19.8 µM (inactive) | 44.1 µM (inactive) | 57.3 µM (inactive) | 37.6 µM (inactive)
COc1ccc(CC(C)NCC(O)c2ccc(O)c(NC=O)c2)cc1 (stereo not given) | > 100 µM (inactive) | > 100 µM (inactive) | > 100 µM (inactive) | < 0.01 µM (active) | > 100 µM (inactive) | > 100 µM (inactive) | > 100 | 86.7 µM (inactive) | > 100 µM (inactive) | 43.4 µM (inactive) | > 100 µM (inactive) | > 100 µM (inactive) | > 100 µM (inactive) | > 100 µM (inactive) | 33.9 µM (inactive) | > 100 µM (inactive) | > 100 µM (inactive) | > 100 µM (inactive) | > 100 µM (inactive)
NS(=O)(=O)c1ccc(NC(=O)N/N=C/c2ccccc2O)cc1 | 68.4 µM (inactive) | 58.7 µM (inactive) | 38.6 µM (inactive) | > 100 µM (inactive) | > 100 µM (inactive) | 67.9 µM (inactive) | 48 | 45.5 µM (inactive) | 40.8 µM (inactive) | 48.2 µM (inactive) | 73.8 µM (inactive) | 60.5 µM (inactive) | 49 µM (inactive) | 37.7 µM (inactive) | 67.8 µM (inactive) | 46.3 µM (inactive) | > 100 µM (inactive) | 50.7 µM (inactive) | 88.7 µM (inactive)
CCOC(=O)CC1Nc2ccccc2C12CCc1c([nH]c3ccccc13)C2C(=O)OCC (stereo not given) | 12.6 µM (inactive) | 6.92 µM (inactive) | > 100 µM (inactive) | 22.9 µM (inactive) | > 100 µM (inactive) | 14.2 µM (inactive) | 13.1 | 11.6 µM (inactive) | 34 µM (inactive) | 12.9 µM (inactive) | 47.5 µM (inactive) | 8.18 µM (inactive) | 51.4 µM (inactive) | 6.1 µM (inactive) | 3.61 µM (inactive) | 14.8 µM (inactive) | 16.2 µM (inactive) | > 100 µM (inactive) | 10.4 µM (inactive)
COc1ccc(C2SCC(=O)N2c2ccc(-n3c(-c4ccccc4)nc4ccccc4c3=O)cc2)cc1 (stereo not given) | 8.89 µM (inactive) | > 100 µM (inactive) | > 100 µM (inactive) | > 100 µM (inactive) | > 100 µM (inactive) | > 100 µM (inactive) | 48.5 | > 100 µM (inactive) | > 100 µM (inactive) | > 100 µM (inactive) | > 100 µM (inactive) | > 10 µM (inactive) | > 100 µM (inactive) | 24.6 µM (inactive) | > 100 µM (inactive) | > 100 µM (inactive) | > 100 µM (inactive) | > 100 µM (inactive) | 21.6 µM (inactive)
COc1ccc(N/N=C2\C3=C(CCC(C)(C)O3)C(=O)c3ccccc32)cc1 | 19.6 µM (inactive) | 15.2 µM (inactive) | 21.9 µM (inactive) | 22.2 µM (inactive) | 25.2 µM (inactive) | 14.2 µM (inactive) | 13.7 | 13.6 µM (inactive) | 15.9 µM (inactive) | 14.1 µM (inactive) | 18.3 µM (inactive) | 19.1 µM (inactive) | 15.3 µM (inactive) | 18.1 µM (inactive) | 14.8 µM (inactive) | 12.2 µM (inactive) | 18.1 µM (inactive) | 20.9 µM (inactive) | 2.51 µM (inactive)
CCO/C=N/C1=C(C#N)SC2=N/C(=C\c3ccccc3)C(=O)N21 | > 100 µM (inactive) | > 100 µM (inactive) | > 100 µM (inactive) | > 100 µM (inactive) | > 100 µM (inactive) | > 100 µM (inactive) | > 100 | > 100 µM (inactive) | 41.9 µM (inactive) | > 100 µM (inactive) | > 100 µM (inactive) | > 100 µM (inactive) | > 100 µM (inactive) | 31.7 µM (inactive) | > 100 µM (inactive) | > 100 µM (inactive) | 77.3 µM (inactive) | > 100 µM (inactive) | 86.9 µM (inactive)
CN(Cc1cnc2nc(N)nc(N)c2n1)c1ccc(C(=O)NC2CCCCC2)cc1 | > 100 µM (inactive) | 13.3 µM (inactive) | 14.9 µM (inactive) | 33.6 µM (inactive) | 37.6 µM (inactive) | 20.1 µM (inactive) | 20.8 | 16.2 µM (inactive) | 7.33 µM (inactive) | 6.65 µM (inactive) | 11.6 µM (inactive) | 23.6 µM (inactive) | 19 µM (inactive) | 34.7 µM (inactive) | 32.4 µM (inactive) | 12.3 µM (inactive) | 53.6 µM (inactive) | 34.5 µM (inactive) | 87.1 µM (inactive)
CC1=C/C(=N\N(C)C)C(C(O)(C(F)(F)F)C(F)(F)F)C(C)(C)C1 (stereo not given) | > 100 µM (inactive) | > 100 µM (inactive) | > 100 µM (inactive) | > 100 µM (inactive) | > 100 µM (inactive) | > 100 µM (inactive) | > 100 | > 100 µM (inactive) | > 100 µM (inactive) | > 100 µM (inactive) | > 100 µM (inactive) | 72.4 µM (inactive) | > 100 µM (inactive) | 97.1 µM (inactive) | > 100 µM (inactive) | 80.2 µM (inactive) | > 100 µM (inactive) | > 100 µM (inactive) | > 100 µM (inactive)
CCNC(=S)Nc1c(C#N)c2n(c1C(=O)OCC)CCCCC2 | > 100 µM (inactive) | > 100 µM (inactive) | > 100 µM (inactive) | > 100 µM (inactive) | > 100 µM (inactive) | > 100 µM (inactive) | > 100 | > 100 µM (inactive) | > 100 µM (inactive) | > 100 µM (inactive) | 76.4 µM (inactive) | 35.3 µM (inactive) | 62.7 µM (inactive) | > 100 µM (inactive) | > 100 µM (inactive) | > 100 µM (inactive) | > 100 µM (inactive) | 35.2 µM (inactive) | > 100 µM (inactive)
CCC(C)C(C(=O)N/N=C1/SCC(=O)N1c1ccccc1)C(=O)N/N=C1/SCC(=O)N1c1ccccc1 (stereo not given) | > 100 µM (inactive) | > 100 µM (inactive) | > 100 µM (inactive) | 28.8 µM (inactive) | 43.5 µM (inactive) | > 100 µM (inactive) | > 100 | > 100 µM (inactive) | > 100 µM (inactive) | 23 µM (inactive) | > 100 µM (inactive) | 32.5 µM (inactive) | 44.9 µM (inactive) | 36 µM (inactive) | > 100 µM (inactive) | 22 µM (inactive) | > 100 µM (inactive) | 79.3 µM (inactive) | > 100 µM (inactive)
CC(C)(C)OC(=O)CC(NC(=O)OC(C)(C)C)C(=O)N[C@@H]1CCCC[C@H]1C(=O)OCc1ccccc1 (stereo not given in full) | 33.3 µM (inactive) | 37 µM (inactive) | 33.3 µM (inactive) | 32.5 µM (inactive) | 32.5 µM (inactive) | 29.6 µM (inactive) | 14.8 | 17.2 µM (inactive) | 18.4 µM (inactive) | 17.5 µM (inactive) | 70.6 µM (inactive) | 15.7 µM (inactive) | 77.3 µM (inactive) | 17 µM (inactive) | 24.7 µM (inactive) | 12.1 µM (inactive) | 62.2 µM (inactive) | 27.8 µM (inactive) | 22.3 µM (inactive)
COc1ccc(-c2c(N)n(-c3cc(OC)cc(OC)c3)c(=O)c3cc([N+](=O)[O-])ccc23)cc1 | > 66.1 µM (inactive) | > 52.6 µM (inactive) | 28.3 µM (inactive) | 28.6 µM (inactive) | > 100 µM (inactive) | > 100 µM (inactive) | > 54.5 | > 53.2 µM (inactive) | 23.8 µM (inactive) | 21.9 µM (inactive) | > 49.5 µM (inactive) | 6.01 µM (inactive) | 29.4 µM (inactive) | > 60.7 µM (inactive) | > 100 µM (inactive) | 18 µM (inactive) | 38.3 µM (inactive) | > 100 µM (inactive) | 7.4 µM (inactive)
COc1ccc2c(c1)C1=NCCN(C)c3ccc([N+](=O)[O-])c(c31)N2 | 0.665 µM (active) | 1.41 µM (inactive) | 0.652 µM (active) | 0.565 µM (active) | 1.02 µM (active) | 0.271 µM (active) | 0.46 | 0.573 µM (active) | 12.2 µM (inactive) | 0.312 µM (active) | 0.43 µM (active) | 1.66 µM (inactive) | 0.731 µM (active) | 0.705 µM (active) | 1.02 µM (active) | 1.45 µM (inactive) | 1.56 µM (inactive) | 0.785 µM (active) | 2.66 µM (inactive)
